Experiments:
[1] = molecular target: CYP2D6 (Homo sapiens, UniProt P10635); assay: CYP inhibition assay; type: in vitro ADME; details: read-out: % Inhibition at 30 μM CYP 2D6
[2] = molecular target: CB1 (h) (Homo sapiens, UniProt P21554); assay: Selectivity screen, radioligand displacement; type: binding; details: read-out: % Inhib CB1 (h)
Description: (§1) If the % inhibition is less than 50%, the test compounds is consider to have no effect.

[3] = molecular target: hERG potassium channel (Homo sapiens, UniProt Q12809); assay: Selectivity screen, radioligand displacement; type: binding; details: read-out: % Inhib Potassium Channel hERG (human)
Description: as §1

[4] = molecular target: Lck kinase (h) (Homo sapiens, UniProt P06239); assay: Selectivity screen, radioligand displacement; type: binding; details: read-out: % Inhib Lck kinase (h)
Description: as §1

[5] = molecular target: delta (DOP) (h) (Homo sapiens, UniProt P41143); assay: Selectivity screen, radioligand displacement; type: binding; details: read-out: % Inhib delta (DOP) (h)
Description: as §1

[6] = molecular target: 5-HT1A (h) (Homo sapiens, UniProt P08908); assay: Selectivity screen, radioligand displacement; type: binding; details: read-out: % Inhib 5-HT1A (h)
Description: as §1

[7] = molecular target: A2A(h) (Homo sapiens, UniProt P29274); assay: Selectivity screen, radioligand displacement; type: binding; details: read-out: % Inhib A2A(h)
Description: as §1

[8] = test system: NA+ Channel (Site2); assay: Selectivity screen, radioligand displacement; type: binding; details: Compound 42 at 10 μM
Description: as §1

[9] = molecular target: alpha 2A (h) (Homo sapiens, UniProt P08913); assay: Selectivity screen, radioligand displacement; type: binding; details: read-out: % Inhib alpha 2A (h)
Description: as §1

[10] = molecular target: M1 (h) (Homo sapiens, UniProt P11229); assay: Selectivity screen, radioligand displacement; type: binding
Description: as §1

[11] = molecular target: COX2(h) (Homo sapiens, UniProt P35354); assay: Selectivity screen, radioligand displacement; type: binding; details: read-out: % Inhib COX2(h)
Description: as §1

[12] = molecular target: N neuronal alpha 4beta 2 (h) (Homo sapiens, UniProt P17787+P43681); assay: Selectivity screen, radioligand displacement; type: binding; details: read-out: % Inhib N neuronal alpha 4beta 2 (h)
Description: as §1

[13] = molecular target: H1 (h) (Homo sapiens, UniProt P35367); assay: Selectivity screen, radioligand displacement; type: binding
Description: as §1

[14] = molecular target: CB2 (h) (Homo sapiens, UniProt P34972); assay: Selectivity screen, radioligand displacement; type: binding; details: read-out: % Inhib CB2 (h)
Description: as §1

[15] = molecular target: M2 (h) (Homo sapiens, UniProt P08172); assay: Selectivity screen, radioligand displacement; type: binding; details: read-out: % Inhib M2 (h)
Description: as §1

[16] = test system: NMDA; assay: Selectivity screen, radioligand displacement; type: binding; details: Compound 42 at 10 μM
Description: as §1

[17] = molecular target: H2 (h) (Homo sapiens, UniProt P25021); assay: Selectivity screen, radioligand displacement; type: binding; details: read-out: % Inhib H2 (h)
Description: as §1

[18] = molecular target: 5-HT2B (h) (Homo sapiens, UniProt P41595); assay: Selectivity screen, radioligand displacement; type: binding; details: read-out: % Inhib 5-HT2B (h)
Description: as §1

[19] = molecular target: kappa (KOP) (Rattus norvegicus, UniProt P34975); assay: Selectivity screen, radioligand displacement; type: binding; details: read-out: % Inhib kappa (KOP)
Description: as §1

[20] = molecular target: M3 (h) (Homo sapiens, UniProt P20309); assay: Selectivity screen, radioligand displacement; type: binding; details: read-out: % Inhib M3 (h)
Description: as §1

[21] = molecular target: norepinephrine transporter (h) (Homo sapiens, UniProt P23975); assay: Selectivity screen, radioligand displacement; type: binding; details: read-out: % Inhib norepinephrine transporter (h)
Description: as §1

[22] = test system: Ca2+ channel (L, dihydropyridine); assay: Selectivity screen, radioligand displacement; type: binding; details: Compound 42 at 10 μM
Description: as §1

[23] = molecular target: 5-HT1B (Rattus norvegicus, UniProt P28564); assay: Selectivity screen, radioligand displacement; type: binding; details: read-out: % Inhib 5-HT1B
Description: as §1

[24] = molecular target: beta 2(h) (Homo sapiens, UniProt P07550); assay: Selectivity screen, radioligand displacement; type: binding; details: read-out: % Inhib beta 2(h)
Description: as §1

[25] = molecular target: CYP2C9 (Homo sapiens, UniProt P11712); assay: CYP inhibition assay; type: in vitro ADME; details: read-out: % Inhibition at 30 μM CYP 2C9
[26] = test system: 44 protein targets; assay: Selectivity screen against 44 protein targets (whole panel); type: binding; details: 10 μM; % inhibition less than 50% is considered no effect
Description: as §1

CYP2D6, sequence (P10635 whole entry): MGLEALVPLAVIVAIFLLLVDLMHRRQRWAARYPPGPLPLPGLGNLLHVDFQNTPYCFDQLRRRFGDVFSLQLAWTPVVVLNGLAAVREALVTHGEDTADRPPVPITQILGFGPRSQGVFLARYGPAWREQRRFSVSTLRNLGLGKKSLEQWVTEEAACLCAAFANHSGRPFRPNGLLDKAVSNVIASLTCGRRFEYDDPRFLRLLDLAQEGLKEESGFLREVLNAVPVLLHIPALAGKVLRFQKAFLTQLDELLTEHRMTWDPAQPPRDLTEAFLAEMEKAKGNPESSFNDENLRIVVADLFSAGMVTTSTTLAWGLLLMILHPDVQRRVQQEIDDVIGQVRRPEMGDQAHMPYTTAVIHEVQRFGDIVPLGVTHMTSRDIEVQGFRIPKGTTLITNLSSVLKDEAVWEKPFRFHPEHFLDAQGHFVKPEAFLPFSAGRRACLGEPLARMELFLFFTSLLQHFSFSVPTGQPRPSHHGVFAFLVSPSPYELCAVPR
norepinephrine transporter (h), sequence (P23975 whole entry): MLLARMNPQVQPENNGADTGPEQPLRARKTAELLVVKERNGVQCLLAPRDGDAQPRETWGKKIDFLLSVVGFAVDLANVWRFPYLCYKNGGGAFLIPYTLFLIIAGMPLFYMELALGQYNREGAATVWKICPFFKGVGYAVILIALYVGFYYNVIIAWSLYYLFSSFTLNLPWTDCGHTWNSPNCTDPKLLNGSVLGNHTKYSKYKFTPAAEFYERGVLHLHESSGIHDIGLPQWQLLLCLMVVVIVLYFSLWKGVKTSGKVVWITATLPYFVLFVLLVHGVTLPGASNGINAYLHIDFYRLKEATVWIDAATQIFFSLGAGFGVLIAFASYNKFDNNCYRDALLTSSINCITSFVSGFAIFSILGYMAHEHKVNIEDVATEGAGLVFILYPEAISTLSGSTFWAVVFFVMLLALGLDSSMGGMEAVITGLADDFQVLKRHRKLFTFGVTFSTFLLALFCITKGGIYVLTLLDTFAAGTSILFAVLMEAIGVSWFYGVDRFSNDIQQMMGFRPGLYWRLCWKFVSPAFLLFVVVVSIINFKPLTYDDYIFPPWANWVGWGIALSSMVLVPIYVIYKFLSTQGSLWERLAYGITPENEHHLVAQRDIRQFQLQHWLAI
H2 (h), sequence (P25021 whole entry): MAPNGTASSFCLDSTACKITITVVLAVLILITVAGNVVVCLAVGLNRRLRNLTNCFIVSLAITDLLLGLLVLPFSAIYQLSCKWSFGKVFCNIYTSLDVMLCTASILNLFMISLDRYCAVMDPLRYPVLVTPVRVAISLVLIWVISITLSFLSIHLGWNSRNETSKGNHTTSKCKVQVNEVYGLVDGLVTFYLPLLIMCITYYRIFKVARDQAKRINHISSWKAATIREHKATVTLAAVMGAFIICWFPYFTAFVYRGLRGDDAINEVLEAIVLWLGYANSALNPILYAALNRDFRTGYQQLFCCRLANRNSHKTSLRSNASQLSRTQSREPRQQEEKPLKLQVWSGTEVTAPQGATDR
COX2(h), sequence (P35354 18-604): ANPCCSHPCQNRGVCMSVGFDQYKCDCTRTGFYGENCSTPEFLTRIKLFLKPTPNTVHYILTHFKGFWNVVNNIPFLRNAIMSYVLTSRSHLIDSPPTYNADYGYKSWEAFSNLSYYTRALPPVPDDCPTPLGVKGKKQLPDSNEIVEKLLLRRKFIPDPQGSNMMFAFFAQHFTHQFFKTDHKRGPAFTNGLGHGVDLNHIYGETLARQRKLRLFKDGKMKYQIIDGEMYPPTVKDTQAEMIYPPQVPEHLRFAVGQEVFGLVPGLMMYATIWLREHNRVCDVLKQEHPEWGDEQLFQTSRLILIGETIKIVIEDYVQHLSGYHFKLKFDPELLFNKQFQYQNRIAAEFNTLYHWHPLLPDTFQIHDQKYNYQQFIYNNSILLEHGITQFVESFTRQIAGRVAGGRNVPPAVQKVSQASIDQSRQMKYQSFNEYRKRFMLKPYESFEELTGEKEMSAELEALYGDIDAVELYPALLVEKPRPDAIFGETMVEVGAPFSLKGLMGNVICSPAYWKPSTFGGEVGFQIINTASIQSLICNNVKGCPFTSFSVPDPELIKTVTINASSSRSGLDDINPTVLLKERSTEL
5-HT1B, sequence (P28564 whole entry): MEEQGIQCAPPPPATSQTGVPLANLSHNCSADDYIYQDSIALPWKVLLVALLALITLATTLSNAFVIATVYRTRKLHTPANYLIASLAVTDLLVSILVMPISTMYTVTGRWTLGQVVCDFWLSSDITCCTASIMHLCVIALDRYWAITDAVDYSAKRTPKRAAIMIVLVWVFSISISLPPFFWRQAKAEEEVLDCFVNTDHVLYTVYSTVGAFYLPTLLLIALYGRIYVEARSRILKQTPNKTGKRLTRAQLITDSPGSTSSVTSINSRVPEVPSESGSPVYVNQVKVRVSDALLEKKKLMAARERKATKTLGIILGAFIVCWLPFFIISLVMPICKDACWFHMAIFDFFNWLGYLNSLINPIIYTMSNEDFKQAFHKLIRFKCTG
CB2 (h), sequence (P34972 whole entry): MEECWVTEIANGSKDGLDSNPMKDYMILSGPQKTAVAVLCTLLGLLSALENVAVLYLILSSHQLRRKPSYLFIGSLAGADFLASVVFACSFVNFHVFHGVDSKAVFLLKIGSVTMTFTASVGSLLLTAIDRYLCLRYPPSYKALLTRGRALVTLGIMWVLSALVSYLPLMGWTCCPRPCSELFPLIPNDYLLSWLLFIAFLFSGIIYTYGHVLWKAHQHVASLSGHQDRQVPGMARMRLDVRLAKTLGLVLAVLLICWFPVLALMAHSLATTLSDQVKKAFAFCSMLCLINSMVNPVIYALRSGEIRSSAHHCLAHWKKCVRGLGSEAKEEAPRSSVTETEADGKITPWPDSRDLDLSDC
N neuronal alpha 4beta 2 (h), sequence (P43681 29-627 limits assumed): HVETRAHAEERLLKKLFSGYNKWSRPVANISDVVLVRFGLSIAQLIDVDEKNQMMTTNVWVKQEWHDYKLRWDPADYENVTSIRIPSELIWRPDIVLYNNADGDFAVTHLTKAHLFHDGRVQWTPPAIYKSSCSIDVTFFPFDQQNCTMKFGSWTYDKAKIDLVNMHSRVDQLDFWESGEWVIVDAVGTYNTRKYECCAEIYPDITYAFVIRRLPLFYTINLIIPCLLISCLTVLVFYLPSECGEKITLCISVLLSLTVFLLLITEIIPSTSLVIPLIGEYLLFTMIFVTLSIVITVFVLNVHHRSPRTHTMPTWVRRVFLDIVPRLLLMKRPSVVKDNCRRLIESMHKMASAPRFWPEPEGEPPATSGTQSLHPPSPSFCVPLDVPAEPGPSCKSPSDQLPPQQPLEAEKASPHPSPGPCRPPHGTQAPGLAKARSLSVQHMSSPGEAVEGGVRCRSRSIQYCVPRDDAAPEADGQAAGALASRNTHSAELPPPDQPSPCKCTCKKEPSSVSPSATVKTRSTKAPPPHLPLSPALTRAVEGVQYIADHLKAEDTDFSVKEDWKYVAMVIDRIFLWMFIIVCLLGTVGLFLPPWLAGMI
N neuronal alpha 4beta 2 (h), sequence (P17787 26-502): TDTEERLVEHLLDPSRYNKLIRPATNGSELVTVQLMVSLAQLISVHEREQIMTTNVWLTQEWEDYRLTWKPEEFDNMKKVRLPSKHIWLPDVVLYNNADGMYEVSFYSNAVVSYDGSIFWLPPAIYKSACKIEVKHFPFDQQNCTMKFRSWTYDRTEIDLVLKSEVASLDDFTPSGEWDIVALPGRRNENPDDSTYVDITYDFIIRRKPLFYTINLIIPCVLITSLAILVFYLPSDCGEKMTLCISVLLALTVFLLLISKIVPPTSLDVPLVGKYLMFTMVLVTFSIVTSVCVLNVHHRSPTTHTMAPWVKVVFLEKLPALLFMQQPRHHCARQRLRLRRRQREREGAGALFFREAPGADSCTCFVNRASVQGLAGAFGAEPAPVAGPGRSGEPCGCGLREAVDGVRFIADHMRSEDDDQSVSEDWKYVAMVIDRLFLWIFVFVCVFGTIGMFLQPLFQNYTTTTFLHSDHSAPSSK
H1 (h), sequence (P35367 whole entry): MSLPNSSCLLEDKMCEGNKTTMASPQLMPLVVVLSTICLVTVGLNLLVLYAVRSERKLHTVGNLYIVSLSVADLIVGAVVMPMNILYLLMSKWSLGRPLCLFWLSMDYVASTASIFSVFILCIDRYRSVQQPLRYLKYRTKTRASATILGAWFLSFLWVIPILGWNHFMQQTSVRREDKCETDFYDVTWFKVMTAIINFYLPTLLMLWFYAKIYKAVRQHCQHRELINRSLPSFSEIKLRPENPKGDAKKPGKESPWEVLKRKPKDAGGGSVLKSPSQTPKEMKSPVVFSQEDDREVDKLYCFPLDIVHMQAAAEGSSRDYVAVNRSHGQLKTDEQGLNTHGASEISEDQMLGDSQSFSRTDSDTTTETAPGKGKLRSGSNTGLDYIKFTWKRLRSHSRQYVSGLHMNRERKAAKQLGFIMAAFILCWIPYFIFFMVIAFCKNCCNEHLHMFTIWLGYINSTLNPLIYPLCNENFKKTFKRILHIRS
M3 (h), sequence (P20309 whole entry): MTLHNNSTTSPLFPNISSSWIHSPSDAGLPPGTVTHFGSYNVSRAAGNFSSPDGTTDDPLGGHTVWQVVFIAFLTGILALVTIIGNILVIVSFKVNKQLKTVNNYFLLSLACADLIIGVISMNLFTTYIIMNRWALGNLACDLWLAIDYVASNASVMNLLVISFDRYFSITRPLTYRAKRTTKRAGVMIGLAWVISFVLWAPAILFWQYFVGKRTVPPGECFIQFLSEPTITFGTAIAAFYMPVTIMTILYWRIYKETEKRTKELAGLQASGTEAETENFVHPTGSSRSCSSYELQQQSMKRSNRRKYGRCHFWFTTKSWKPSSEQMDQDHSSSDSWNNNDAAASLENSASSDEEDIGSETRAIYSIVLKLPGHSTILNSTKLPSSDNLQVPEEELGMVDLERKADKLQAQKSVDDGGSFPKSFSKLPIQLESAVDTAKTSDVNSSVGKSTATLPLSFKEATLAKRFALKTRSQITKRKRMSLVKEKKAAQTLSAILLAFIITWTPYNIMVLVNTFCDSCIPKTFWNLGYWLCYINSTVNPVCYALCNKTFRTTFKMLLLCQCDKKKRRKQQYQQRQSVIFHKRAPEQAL

Q: What does the source list for `Cc1ccccc1C(=O)Nc1nc(NC(=O)c2ccccc2C)n(-c2ccc(OC(F)(F)F)cc2)n1` [Compound 42, N,N′-(1-(4-(trifluoromethoxy)phenyl)-1H-1,2,4-triazole-3,5-diyl)bis(2-methylbenzamide)]?
A: inhibition at 30 μM [1]: 6.87%; inhibition at 10 µM [2]: < 1%; inhibition at 10 µM [3]: 1%; inhibition at 10 µM [4]: 8%; inhibition at 10 µM [5]: 9%; inhibition at 10 µM [6]: 10%; inhibition at 10 µM [7]: 7%; % Inhib NA+ Channel (Site2) [8]: 43%; inhibition at 10 µM [9]: < 1%; inhibition at 10 µM [10]: 4%; inhibition at 10 µM [11]: 1%; inhibition at 10 µM [12]: < 1%; inhibition at 10 µM [13]: < 1%; inhibition at 10 µM [14]: < 1%; inhibition at 10 µM [15]: < 1%; % Inhib NMDA [16]: 8%; inhibition at 10 µM [17]: < 1%; inhibition at 10 µM [18]: < 1%; inhibition at 10 µM [19]: 3%; inhibition at 10 µM [20]: < 1%; inhibition at 10 µM [21]: 1%; % Inhib Ca2+ channel (L, dihydropyridine) [22]: 45%; inhibition at 10 µM [23]: 1%; inhibition at 10 µM [24]: 9%; inhibition at 30 μM [25]: 11.8%; effect against the 44 protein targets [26]: no effects

Reference: patent US10889553B2, “Asymmetric triazole benzamide derivatives and the compositions and methods of treatment regarding the same” (NysnoBio Ireland DAC, priority 2017, dated 2021)
